# Patent US5962516A, “Immunosuppressive compounds and methods” (priority 1999, dated 1999)
# Where a name gives a salt, the structure may show the parent alone.
# How the values were obtained:
# [1] = test system: heart transplant rejection; assay: Cardiac allograft survival (heterotopic heart transplantation in rats); format: in vivo, rat (Brown Norway donors, Lewis recipients); conditions: for mean survival time of allograft / mean survival time compared with underivatized triptolide: i.p.; for mean survival time of allograft: day -1 to 14; for mean survival time compared with underivatized triptolide: equimolar doses (YM-273 0.40, YM-274 0.33, T10 0.25 mg/kg)
# Text: Treatment of transplantation rejection, in accordance with the invention, is illustrated for rejection of an allograft by the in vivo heart transplantation model used in Example 14. The method involves a well-characterized rat model system (Ono and Lindsey, 1969) in which a transplanted heart is attached to the abdominal great vessels of an allogeneic recipient animal, and the viability of the transplanted heart is gauged by the heart's ability to beat in the recipient animal.
# In one study, the animals were administered by intraperitoneal injections, from one day preceding to 14 days following heart transplantation, either control solution (5% ethanol, 10 ml/kg), triptolide (designated as T10), or with two concentrations each of YM-273 and YM-274. There were three animals in each group, except for the control group in which five animals were used.
# Heterotopic whole heart transplantation was performed according to the standard method (Ono and Lindsey, 1969). The donors (Brown Norway rats, 200-255 g, Charles River, Wilmington, Mass.) and recipients (Adult male Lewis rats, 225-275g, Charles River) were anesthetized with sodium pentobarbital (40 mg/kg). Following adequate donor anticoagulation using heparin, the heart graft was removed and stored at 4° C. in PhysioSol Irrigation Solution (Abbott Laboratories, N. Chicago, Ill.). The ascending aorta and pulmonary artery were transected, and the vena cava and pulmonary veins were ligated. […] The cold ischemic time of all the cardiac grafts was less than 45 minutes. Graft heartbeat was monitored by abdominal palpation. The period of functional graft survival was measured as the number of days during which cardiac graft contractions could be detected by abdominal palpation. Results were confirmed by direct visualization at laparotomy.
# Heart transplant recipient animals prepared as described above (3-5 animals/group) were treated with (i) control solution (5% ethanol, 10 ml/kg), (ii) YM-273 at 0.10 mg/kg and 0.40 mg/kg (FIG. 5A), (iii) YM-274 at 0.084 and 0.33 mg/kg (FIG. 5B), and (iv) and T10 (triptolide) 0.25 mg/kg (FIG. 6). In addition to showing the results for T10, FIG. 6 repeats the results from FIGS. 5A-5B for YM-273 and YM-274 at 0.40 and 0.33 mg/kg, respectively, such that their concentrations were equimolar relative to T10. All compounds were administered intraperitoneally. Treatment started on the day prior to surgery and continuing daily until postoperative day 14, or until the end of allograft survival.
# [2] = Cytotoxicity by MTT reduction reported with the IL-1 assay (Table I); format: cell-based; conditions: mouse, thymocytes, cytotoxic when toxicity greater than 25%
# Method: (§1) Potential cytotoxicity of the test samples was assessed by the measurement of their effect on the reduction of MTT (3-[4,5-Dimethylthiazole-2-yl]-2,5-diphenyltetrazolium bromide) by cultured cells. MTT, a yellow-colored compound, is reduced by mitochondrial enzymes to form the purple crystalline reduction product formazane, providing an index of cellular respiration on viable cells as well as a sensitive assay for cytotoxicity (Mossmann, 1983).
# (§2) The cytotoxicity was assessed in cultured human PBMC and mouse thymocytes. A stock solution of MTT (Sigma) at 5 mg/ml in phosphate buffered saline, pH 7.4, was prepared and stored in the dark at 4° C. PBMCs or thymocytes were cultured with various concentrations of test samples in flatbottom 96-well tissue culture plates (Costar) under the same conditions as those described above, but the stimulants (X-35 or IL-1+PHA) were replaced by appropriate medium. Untreated cells with medium alone and without the test samples were used as controls. After incubation for 21 hours, 25 μl of MTT solution was added to each well. After an additional three hours of incubation, the experiment was terminated by addition of a solution of 10% sodium dodecyl sulfate in 0.01 N HCl. Following overnight incubation at 37° C. to solubilize the formazane crystals, optical density was determined at 570-650 nm in microplate reader. […]
# [3] = Cytotoxicity by MTT reduction reported with the MLR assay (Table II); format: cell-based; conditions: cytotoxic when toxicity greater than 25%
# Method: as §1, §2
# [4] = Stability in blood serum by TLC; format: in vitro ADME; conditions: rat serum, 37° C
# Method: The stability of triptolide succinate in blood serum was determined as detailed in Example 10B. In this study, a solution of triptolide succinate (YM-262, free acid) in DMSO was mixed with rat serum and incubated at 37° C. The mixture was assayed periodically by thin layer chromatography (TLC) to follow the hydrolysis of the triptolide succinate over time.
# A solution of triptolide succinate (free acid; YM-262) in DMSO was made at a concentration of 25 mg/ml, and 0.1 ml of this solution was mixed with 0.5 ml of rat serum. The mixture was incubated at 37° C. Aliquots of the mixture were taken at 1, 3, 5, 15, 45 minutes and 18 hours and analyzed by thin layer chromatography (TLC). The TLC plates were developed in 1:5 CH2 Cl2 /Et2 O. After development, the plates were treated with iodine vapor and examined under a UV lamp. Triptolide and triptolide succinate were used as reference compounds (Rf =0.60 and 0.45, respectively).
smiles,measurement,setting,value
"CC(C)C12OC1C1OC13C1(C)CCC4=C(COC4=O)C1CC1OC13C2OC(=O)CCC(=O)O (stereo not shown) [YM-273, Triptolide Succinate Tris Salt]",mean survival time of allograft,"[1]; YM-273, 0.1 mg/kg",7 days
same,mean survival time compared with control,"[1]; YM-273, 0.4 mg/kg i.p.",substantial improvement over the control
same,mean survival time of allograft,"[1]; YM-273, 0.4 mg/kg",24 days
same,mean survival time compared with underivatized triptolide,[1],somewhat better than that seen with underivatized triptolide
"CC(C)[C@]12O[C@H]1[C@@H]1O[C@]13[C@]1(O[C@H]1C[C@H]1C4=C(CC[C@@]13C)C(=O)OC4)[C@@H]2O [Triptolide, triptolide, reference compound]",CC50 at 24 h,[2],> 12.5 µg/mL
same,CC50 at 24 h,[3],0.0133 µg/mL
same,"triptolide formed from triptolide succinate in serum, 15 minutes","[4]; 15 minutes after addition of YM-262, TLC",a new spot corresponding to triptolide had appeared
same,"triptolide formed from triptolide succinate in serum, 45 minutes","[4]; 45 minutes after addition of YM-262, TLC",the triptolide spot had also disappeared
"CC(C)C12OC1C1OC13C1(C)CCC4=C(COC4=O)C1CC1OC13C2OC(=O)CCC(=O)O (stereo not shown) [YM-274, Triptolide Succinate Sodium Salt]",mean survival time of allograft,"[1]; YM-274, 0.0837 mg/kg",10 days
same,mean survival time compared with underivatized triptolide,[1]; Succinate Sodium Salt,substantially better
"CC(C)C12OC1C1OC13C1(C)CCC4=C(COC4=O)C1CC1OC13C2OC(=O)CCC(=O)O (stereo not shown) [YM-262, Triptolide Succinate]",CC50 at 24 h,[2],> 12.5 µg/mL
same,time for hydrolysis in blood serum to triptolide,[4],≤ 15 min
same,time for hydrolysis in serum to release free triptolide,[4],less than an hour
same,"stability in blood serum, 3 minutes","[4]; 3 minutes, TLC",only triptolide succinate was detected by TLC
same,"stability in blood serum, 15 minutes","[4]; 15 minutes, TLC",the triptolide succinate spot was gone
same,"stability in blood serum, 3 to 5 minutes","[4]; first 3 to 5 minutes, TLC",most of the triptolide succinate remained
